In patent US20030153539A1, “Method to potentiate the therapeutic efficacy of taxane and derivatives thereof” (priority 2000, published 2003):

How the values were obtained:
CYP3A4 = CYP3A4 (Homo sapiens, UniProt P08684); assay: In vitro inhibition of cDNA expressed human CYP3A4 (testosterone substrate, radio-HPLC); conditions: for percentage of activity remaining in the presence of the compound: mean of n=3
Procedure: (§1) All incubations were conducted in triplicate.
(§2) See table 2 for HPLC mobile phase conditions.

CYP1A2 = molecular target: T1, CYP1A2 (Homo sapiens, UniProt P05177); assay: In vitro inhibition of cDNA expressed human CYP1A2 (chlorzoxazone substrate, radio-HPLC); conditions: mean of n=3
T1 sequence (P05177 1-516): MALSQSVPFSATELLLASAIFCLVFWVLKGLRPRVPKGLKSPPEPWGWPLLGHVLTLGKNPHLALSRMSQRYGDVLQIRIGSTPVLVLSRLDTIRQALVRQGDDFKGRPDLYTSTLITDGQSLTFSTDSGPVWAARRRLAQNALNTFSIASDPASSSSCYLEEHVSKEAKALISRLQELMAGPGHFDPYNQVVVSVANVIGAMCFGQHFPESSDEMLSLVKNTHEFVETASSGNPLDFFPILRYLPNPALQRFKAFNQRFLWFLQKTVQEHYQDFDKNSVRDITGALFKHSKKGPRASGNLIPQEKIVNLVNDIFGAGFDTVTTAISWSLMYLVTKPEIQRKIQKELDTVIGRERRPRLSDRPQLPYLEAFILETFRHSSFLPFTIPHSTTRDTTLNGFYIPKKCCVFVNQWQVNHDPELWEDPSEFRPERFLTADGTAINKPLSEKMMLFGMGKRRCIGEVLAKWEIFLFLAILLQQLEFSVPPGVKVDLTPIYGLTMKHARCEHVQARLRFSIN
Procedure: as §1, §2

CYP2C19 = CYP2C19 (Homo sapiens, UniProt P33261); assay: In vitro inhibition of cDNA expressed human CYP2C19 ((S)-mephenytoin substrate, radio-HPLC); conditions: control 100%, mean of n=3
CYP2C19, sequence (P33261 whole entry): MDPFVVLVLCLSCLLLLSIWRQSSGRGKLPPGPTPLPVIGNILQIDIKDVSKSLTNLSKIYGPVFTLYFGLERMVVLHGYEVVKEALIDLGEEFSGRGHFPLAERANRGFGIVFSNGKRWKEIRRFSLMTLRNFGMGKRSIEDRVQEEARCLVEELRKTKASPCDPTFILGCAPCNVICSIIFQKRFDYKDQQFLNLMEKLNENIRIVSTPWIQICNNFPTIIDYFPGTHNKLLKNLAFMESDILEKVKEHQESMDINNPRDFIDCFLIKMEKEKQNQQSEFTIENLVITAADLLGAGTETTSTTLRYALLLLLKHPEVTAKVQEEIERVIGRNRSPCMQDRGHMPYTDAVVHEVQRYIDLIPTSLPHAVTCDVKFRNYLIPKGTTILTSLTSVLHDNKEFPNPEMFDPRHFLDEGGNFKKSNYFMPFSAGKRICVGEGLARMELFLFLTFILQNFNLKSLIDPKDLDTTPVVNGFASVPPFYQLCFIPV
Procedure: as §1, §2

CYP2C9 = CYP2C9 (Homo sapiens, UniProt P11712); assay: In vitro inhibition of cDNA expressed human CYP2C9 (diclofenac substrate, radio-HPLC); conditions: mean of n=3
CYP2C9, sequence (P11712 whole entry): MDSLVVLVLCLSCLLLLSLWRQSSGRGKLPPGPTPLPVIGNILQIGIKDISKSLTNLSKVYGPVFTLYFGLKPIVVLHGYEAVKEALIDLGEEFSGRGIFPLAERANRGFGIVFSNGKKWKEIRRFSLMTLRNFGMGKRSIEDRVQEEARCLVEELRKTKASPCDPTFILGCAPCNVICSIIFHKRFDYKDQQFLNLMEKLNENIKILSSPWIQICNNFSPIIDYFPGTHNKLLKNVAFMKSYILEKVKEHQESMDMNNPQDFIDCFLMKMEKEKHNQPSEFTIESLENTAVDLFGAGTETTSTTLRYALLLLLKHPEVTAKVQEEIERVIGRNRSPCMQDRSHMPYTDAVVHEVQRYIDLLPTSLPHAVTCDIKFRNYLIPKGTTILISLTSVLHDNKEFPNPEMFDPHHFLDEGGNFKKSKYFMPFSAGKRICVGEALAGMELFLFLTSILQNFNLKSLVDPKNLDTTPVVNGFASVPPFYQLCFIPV
Procedure: as §1, §2

CYP2D6 = CYP2D6 (Homo sapiens, UniProt P10635); assay: In vitro inhibition of cDNA expressed human CYP2D6 (delavirdine substrate, radio-HPLC); conditions: mean of n=3
CYP2D6, sequence (P10635 whole entry): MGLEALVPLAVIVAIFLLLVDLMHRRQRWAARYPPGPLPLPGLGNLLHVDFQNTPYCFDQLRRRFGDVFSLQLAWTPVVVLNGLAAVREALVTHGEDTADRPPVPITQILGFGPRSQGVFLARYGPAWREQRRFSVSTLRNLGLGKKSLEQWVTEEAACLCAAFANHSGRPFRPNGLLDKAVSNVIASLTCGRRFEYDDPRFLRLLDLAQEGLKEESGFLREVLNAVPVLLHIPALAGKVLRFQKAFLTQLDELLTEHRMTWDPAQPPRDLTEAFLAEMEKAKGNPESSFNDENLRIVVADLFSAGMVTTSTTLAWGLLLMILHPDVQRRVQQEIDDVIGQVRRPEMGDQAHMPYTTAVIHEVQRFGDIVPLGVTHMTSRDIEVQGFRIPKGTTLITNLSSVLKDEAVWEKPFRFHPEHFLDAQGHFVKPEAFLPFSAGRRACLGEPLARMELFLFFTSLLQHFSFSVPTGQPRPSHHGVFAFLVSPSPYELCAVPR
Procedure: as §1, §2

CYP2C8 = molecular target: T2, CYP2C8 (Homo sapiens, UniProt P10632); assay: Inhibition of CYP2C8 mediated 6α-hydroxylation of paclitaxel (human CYP2C8 cDNA expressed microsomes, HPLC-UV); assay type: biochemical; conditions: 20 μM paclitaxel
T2 construct: purchased Gentest (Woburn, Mass., USA)
T2 sequence (P10632 1-490): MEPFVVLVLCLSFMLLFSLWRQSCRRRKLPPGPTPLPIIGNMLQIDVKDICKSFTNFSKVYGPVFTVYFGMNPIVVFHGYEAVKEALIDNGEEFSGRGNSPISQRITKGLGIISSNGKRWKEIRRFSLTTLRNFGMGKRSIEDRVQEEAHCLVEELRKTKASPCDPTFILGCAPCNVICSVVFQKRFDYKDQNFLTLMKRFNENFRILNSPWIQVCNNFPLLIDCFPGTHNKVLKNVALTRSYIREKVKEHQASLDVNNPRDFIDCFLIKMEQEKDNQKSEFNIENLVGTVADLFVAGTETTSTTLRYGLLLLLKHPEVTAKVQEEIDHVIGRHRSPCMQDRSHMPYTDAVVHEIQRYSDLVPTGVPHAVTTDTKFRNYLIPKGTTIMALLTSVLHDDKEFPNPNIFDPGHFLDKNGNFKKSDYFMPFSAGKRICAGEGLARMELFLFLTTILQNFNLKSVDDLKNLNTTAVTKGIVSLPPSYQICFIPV
Procedure: A 100 μl reaction mixture containing 4 pmol CYP2C8, […] paclitaxel (5 mM paclitaxel stock in ethanol) and NADPH (2 mM) in 50 mM potassium phosphate buffer (pH 7.4) was incubated at 37° C. for 40 min in the absence (solvent only) and presence of either 100 μM estramustine or estromustine.
Estramustine and estromustine were dissolved in DMSO:CH3CN (1:1). The reaction was stopped by addition of 50 μl CH3CN followed by an additional 50 μl of mobile phase. […] All incubations were conducted in triplicate.
See table 2 for HPLC mobile phase conditions. Both paclitaxel and the metabolite 6a-hydroxypaclitaxel were detected by its absorbance at 230 nm.
To investigate if estramustine and estromustine were able to inhibit CYP2C8 mediated enzyme activities, human CYP2C8 cDNA expressed microsomes were incubated with paclitaxel in the presence of either estramustine or estromustine.

[1] = CYP3A4, compound at 100 μM, control 100%
[2] = CYP1A2, compound at 100 μM, control 100%
[3] = CYP2C9, compound at 100 μM, control 100%
[4] = CYP2D6, compound at 100 μM, control 100%

CYP3A4, sequence (P08684 whole entry): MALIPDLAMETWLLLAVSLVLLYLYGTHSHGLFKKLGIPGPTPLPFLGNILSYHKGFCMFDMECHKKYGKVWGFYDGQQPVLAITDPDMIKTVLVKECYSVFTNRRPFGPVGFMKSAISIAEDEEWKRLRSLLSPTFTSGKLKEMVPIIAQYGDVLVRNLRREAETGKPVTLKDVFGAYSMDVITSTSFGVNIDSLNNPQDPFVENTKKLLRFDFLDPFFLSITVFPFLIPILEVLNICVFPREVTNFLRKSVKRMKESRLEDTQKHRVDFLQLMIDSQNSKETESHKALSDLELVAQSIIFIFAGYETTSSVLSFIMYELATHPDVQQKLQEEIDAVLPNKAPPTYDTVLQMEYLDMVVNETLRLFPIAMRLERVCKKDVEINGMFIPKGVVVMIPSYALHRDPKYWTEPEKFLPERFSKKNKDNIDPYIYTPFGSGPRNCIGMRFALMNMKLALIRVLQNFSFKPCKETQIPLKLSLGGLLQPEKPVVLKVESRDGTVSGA

SMILES: C[C@]12CC[C@@H]3c4ccc(OC(=O)N(CCCl)CCCl)cc4CC[C@H]3[C@@H]1CC[C@@H]2O [Estramustine, estramustine]
- percentage of activity remaining in the presence of the compound (CYP3A4; [1]): 20.2%
- percentage of activity remaining in the presence of the compound (CYP3A4; CYP3A4, control 100%): 27.0%
- inhibition at 90 min, 100 µM (CYP3A4; human): ~80%
- percentage of activity remaining in the presence of the compound (CYP1A2; [2]): 57.2%
- percentage of activity remaining in the presence of the compound (CYP1A2; CYP1A2, control 100%): 72.7%
- percentage of activity remaining in the presence of the compound (CYP2C19; CYP2C19, compound at 100 μM): 40.1%
- percentage of activity remaining in the presence of the compound (CYP2C19; CYP2C19, first estramustine column, head prints 100 μM): 37.9%
- percentage of activity remaining in the presence of the compound (CYP2C9; [3]): 58.8%
- percentage of activity remaining in the presence of the compound (CYP2C9; CYP2C9, control 100%): 56.4%
- percentage of activity remaining in the presence of the compound (CYP2D6; [4]): 32.7%
- percentage of activity remaining in the presence of the compound (CYP2D6; CYP2D6, control 100%): 38.0%
- inhibition at 40 min, 100 μM (CYP2C8; human, microsomes, pH 7.4, CYP2C8, compound at 100 μM): 40%

SMILES: C[C@]12CC[C@@H]3c4ccc(OC(=O)N(CCCl)CCCl)cc4CC[C@H]3[C@@H]1CCC2=O [Estromustine, estromustine]
- percentage of activity remaining in the presence of the compound (CYP3A4; CYP3A4, compound at 10 μM, control 100%): 43.2%
- percentage of activity remaining in the presence of the compound (CYP3A4; [1]): 33.1%
- percentage of activity remaining in the presence of the compound (CYP1A2; CYP1A2, compound at 10 μM, control 100%): 85.0%
- percentage of activity remaining in the presence of the compound (CYP1A2; [2]): 68.4%
- percentage of activity remaining in the presence of the compound (CYP2C19; CYP2C19, compound at 10 μM): 90.6%
- percentage of activity remaining in the presence of the compound (CYP2C19; CYP2C19, compound at 100 μM): 81.0%
- percentage of activity remaining in the presence of the compound (CYP2C9; CYP2C9, compound at 10 μM, control 100%): 92.5%
- percentage of activity remaining in the presence of the compound (CYP2C9; [3]): 86.9%
- percentage of activity remaining in the presence of the compound (CYP2D6; CYP2D6, compound at 10 μM, control 100%): 64.1%
- percentage of activity remaining in the presence of the compound (CYP2D6; [4]): 76.9%
- inhibition of 6α-hydroxylation of paclitaxel (CYP2C8; CYP2C8, compound at 100 μM, 40 min): 20%
